Experiments:
Caki1 = experiment: Proliferation dose-response IC50, Caki1; assay type: cell-based; conditions: Homo sapiens, CAKI-1; proliferative IC50, linear regression modeling of dose-response
Experimental: (§1) Error bars indicate standard deviation for n=2 replicates. […] To evaluate inhibition of SCD1 by these molecules, we used LC/MS to quantify changes in SCD1-catalyzed conversion of stearoyl-CoA to oleoyl-CoA in response to drug treatments in vitro using SCD1 protein extracted from murine liver (Figure 3c, Supplementary Figure 2g). […] Synthesis routes and spectral data including NMR and MS are also provided (Supplementary Figures 3-6).
(§2) Cells were seeded at 5,000 cells/well in clear-bottom 96-well plates in triplicate. Drug treatment was applied at 1:1000 in reduced serum conditions (3%). […] Alternatively, cells were plated 2x10^5/well in 12-well plates (Genesee Scientific) in triplicate prior to drug treatment. After 120-hour treatment, cell number was established using a Coulter Particle Counter (Beckman). Oleic acid-albumin (Sigma Aldrich) was added to media at 5µM, and was applied adjuvant to drug treatment. Drug stocks were prepared in DMSO (Sigma) at 1000x. IC50 dosing per cell line was calculated using CalcuSyn analytical software.

Caki2 = experiment: Proliferation dose-response IC50, Caki2; assay type: cell-based; conditions: Homo sapiens, CAKI-2; proliferative IC50, linear regression modeling of dose-response
Experimental: as §1, §2

A498 ccRCC tumors = experiment: Subcutaneous A498 xenograft tumor growth; assay type: in vivo, athymic nude mice; conditions: oral administration in chow, 60, 180 or 600 mg/kg, 4.5 weeks
Experimental: SCD1 expression correlates with poor cancer patient outcomes as evidenced by decreased survival in multiple cancers including gastric, lung, ovarian and renal cell carcinoma (Figure 5a-5b, Supplementary Figure 9a-9b). […] Our findings in thyroid carcinoma similarly present discordancy between tumor response to SCD1 inhibitors and SCD1 expression. SSI-4 was tested in vivo for anti-tumorigenic activity.
Figure 5 SSI-4 attenuates tumor progression Kaplan Meier survival analysis of indicated subtypes of (a) gastric and (b) lung cancer patients sorted into high versus low SCD1 mRNA expression, for multiple disease subtypes. Patient risk assessment at indicated mean follow-up is shown. […] (h) Tumor burden of ACHN pulmonary metastasis in response to SSI-4 treatment (180mg/kg) measured by ex vivo bioluminescent flux, given in photons/second (n=5 per group). ([…]) Tumor burden of ACHN pulmonary metastasis as determined by H&E staining of lungs from (h).
A498 cells were injected subcutaneously in the flank of athymic nude mice at 1x10^6/mouse. […] Tumor burden was measured using calipers. […] Once therapy was completed, lung tissue was harvested and analyzed for tumor burden via ex vivo bioluminescent imaging, and hematoxylin and eosin (H&E) staining of formalin-fixed, paraffin-embedded lung tissue. […]

[1] = Seven-day oral toxicology study (body weight, serum chemistry); assay type: in vivo, Sprague Dawley rats
Experimental: . […] Chronic treatment at the highest dose in tumor-bearing animals appeared to be well tolerated, with ‹10% reduction in body mass even at the highest dose of 600mg/kg after 4.5 weeks of daily treatment (Supplementary Figure S9d).
Figure 7 SSI-4 has a favorable toxicity profile (a-b) Weight changes in male or female Sprague Dawley rats treated daily with indicated doses of SSI-4 for seven days (n=3 per group). (c-d) Serum profile of indicated enzymes measured on day 8 in male or female Sprague Dawley rats treated daily with indicated doses of SSI-4 for seven days (n=3 per group). (BUN= blood urea nitrogen; AST= aspartate aminotransferase; ALT= alanine aminotransferase; ALK/Phos= alkaline phosphatase).
Sprague dawley rats (6-8 weeks old M/F) were orally gavaged with SS1-4 at the indicated dose daily, for a duration of seven days. For each dose levels 3 male and 3 females were placed on study. Rats were clinically observed and weighed daily. On day 8 rats were euthanatized and blood was collected by cardiac puncture. Blood chemistry was measured by STAT Veterinary laboratory (San Diego CA).

[2] = Tolerability of chronic treatment in tumor-bearing animals; assay type: in vivo, athymic nude mice
Experimental: Chronic treatment at the highest dose in tumor-bearing animals appeared to be well tolerated, with ‹10% reduction in body mass even at the highest dose of 600mg/kg after 4.5 weeks of daily treatment (Supplementary Figure S9d).
A498 cells were injected subcutaneously in the flank of athymic nude mice at 1x10^6/mouse. Once tumor burden reached >50mm^3, SSI-4 treatment was administered at 60, 180, or 600 mg/kg in custom AIN76 animal chow (Research Diets, Inc.), given continuously for 4.5 weeks. Tumor burden was measured using calipers. For the lung tumor study, 2 million ACHN- pSIN Luc Ub Emerald GFP cells were injected intravenously in 50µL of PBS in athymic nude mice. 54 days after implantation, animals began SSI-4 treatment (180 mg/kg, chow, continuous) for 28 days. Once therapy was completed, lung tissue was harvested and analyzed for tumor burden via ex vivo bioluminescent imaging, and hematoxylin and eosin (H&E) staining of formalin-fixed, paraffin-embedded lung tissue. 20× images were obtained using Scanscope XT and Imagescope software.
Supplementary Figure 9: Patient survival correlated with SCD1 gene expression. […] (d) Change in body weight (BW) corrected for individual total weight, recorded during in vivo dose-response to SSI-4 in A498 xenograft model (Figure 3g). […]

4 ccRCC cell lines = experiment: High-throughput proliferative screen, single point; conditions: in at least 2/4 ccRCC cell lines
From the text: Using linear regression modeling generated from dose-response curves, proliferative inhibitory concentrations (IC50) of these 5 compounds were established (Figure 3b, Supplementary Figure 2b-2f).
(a) High-throughput proliferative screen
of known and novel SCD1 inhibitors in ccRCC cell lines. Dashed line represents a 40% decrease in proliferation as compared to DMSO
included as a known SCD1 inhibitor. Compounds labeled with an asterisk (*) are single-blinded known SCD1 inhibitors. (b-f) Dose-
the proliferative dose-response line graph.

In the case of CNC(=O)c1ccnc(NC(=O)N2CCC(Oc3ccccc3Cl)CC2)c1 [SSI-4], the IC50 (Caki1) is reported as 0.01 µM, the IC50 (Caki2) is reported as 0.009 µM and the “growth of A498 ccRCC tumors” value (A498 ccRCC tumors) is reported as “growth inhibition”. For the same molecule, the liver enzymes ([1]; all doses tested, males and females, day 8) was “No abnormalities”, the “changes in body weight” value ([1]; females, all doses tested, daily oral for one week) was “no significant changes” and the “changes in body weight” value ([1]; males, daily oral dose of 300mg/kg for one week) was < 10%. The primary adverse events ([2]; reversible upon discontinuation of therapy) was “Ocular changes including bilateral squinting”, the “reduction in body mass” value ([2]; tumor-bearing animals, 600mg/kg, 4.5 weeks of daily treatment) was < 10% and the decrease in proliferation (4 ccRCC cell lines) was > 40%.
